Source: ChEMBL document CHEMBL3875185, “Structure-anticonvulsant activity studies in the group of (E)-N-cinnamoyl aminoalkanols derivatives monosubstituted in phenyl ring with 4-Cl, 4-CH3 or 2-CH3” (Bioorg Med Chem, 2017)
Activity calls are given as the source filed them. The calls are words filed in the database; no cut-off is given here.

Legend:
Rattus norvegicus [1] = experiment: Neurotoxicity in ip dosed Sprague-Dawley rat assessed as behavioral change by measuring time to peak effect; format: toxicity, organism-based; details: in vivo
[2] = target: 5-hydroxytryptamine receptor 2B (Homo sapiens) (UniProt P41595); experiment: Displacement of [125I]DOI from human recombinant 5HT2B receptor expressed in CHO cells at 100 uM measured after 60 mins by scintillation counting method relative to control; format: cell-based
Rattus norvegicus [3] = experiment: Neurotoxicity in Sprague-Dawley rat assessed as behavioral change at 30 mg/kg, po measured at 1 hr post dose; format: toxicity, organism-based; details: in vivo
[4] = Neurotoxicity in ip dosed Sprague-Dawley rat assessed as behavioral change; format: toxicity, organism-based; details: in vivo
[5] = target: Adrenergic receptor alpha-2 (Rattus norvegicus) (UniProt P22086+P19328+P22909); experiment: Displacement of [3H]RX 821002 from rat cerebral cortex alpha-2 adrenergic receptor at 100 uM measured after 60 mins by scintillation counting method relative to control
Mus musculus [6] = experiment: Anticonvulsant activity in 6-Hz induced seizure mouse model assessed as restoration of normal activity within 10 secs from stimulation at 100 mg/kg, ip at 32 mA measured at 0.5 hrs post dose; format: functional, organism-based
[7] = Neurotoxicity in po dosed Sprague-Dawley rat assessed as behavioral change; format: toxicity, organism-based; details: in vivo
[8] = target: Prostaglandin E2 receptor EP2 subtype (Homo sapiens) (UniProt P43116); experiment: Displacement of [3H]PGE2 from human recombinant EP2 receptor expressed in HEK293 cells at 100 uM measured after 120 mins by scintillation counting method relative to control; format: cell-based
Rattus norvegicus [9] = organism: Rattus norvegicus; experiment: Displacement of [35S]TBPS from rat cerebral cortex GABA-gated chloride channel at 100 uM measured after 60 mins by scintillation counting method relative to control
Mus musculus [10] = experiment: Anticonvulsant activity in ip dosed maximal electroshock induced seizure mouse model assessed as suppression in hindlimb tonic extension; format: functional
Rattus norvegicus [11] = experiment: Anticonvulsant activity in po dosed maximal electroshock induced seizure Sprague-Dawley rat model assessed as suppression in hindlimb tonic extension by measuring time to peak effect; format: functional
[12] = target: Kappa-type opioid receptor (Rattus norvegicus) (UniProt P34975); experiment: Displacement of [3H]U 69593 from rat recombinant kappa-opioid receptor expressed in CHO cells at 100 uM measured after 60 mins by scintillation counting method relative to control; format: cell-based
[13] = target: Melatonin receptor type 1A (Homo sapiens) (UniProt P48039); experiment: Displacement of [125I]2-iodomelatonin from human recombinant MT1 receptor expressed in CHO cells at 100 uM measured after 60 mins by scintillation counting method relative to control; format: cell-based
Mus musculus [14] = experiment: Anticonvulsant activity in ip dosed pentylenetetrazole induced seizure mouse model assessed as no observable episode of clonic convulsion of at least 5 secs; format: functional
[15] = target: T1, C-C chemokine receptor type 1 (Homo sapiens) (UniProt P32246); experiment: Displacement of [125I]MIP-1a from human recombinant CCR1 receptor expressed in HEK293 cells at 100 uM measured after 120 mins by scintillation counting method relative to control; format: cell-based
T1 sequence (whole entry): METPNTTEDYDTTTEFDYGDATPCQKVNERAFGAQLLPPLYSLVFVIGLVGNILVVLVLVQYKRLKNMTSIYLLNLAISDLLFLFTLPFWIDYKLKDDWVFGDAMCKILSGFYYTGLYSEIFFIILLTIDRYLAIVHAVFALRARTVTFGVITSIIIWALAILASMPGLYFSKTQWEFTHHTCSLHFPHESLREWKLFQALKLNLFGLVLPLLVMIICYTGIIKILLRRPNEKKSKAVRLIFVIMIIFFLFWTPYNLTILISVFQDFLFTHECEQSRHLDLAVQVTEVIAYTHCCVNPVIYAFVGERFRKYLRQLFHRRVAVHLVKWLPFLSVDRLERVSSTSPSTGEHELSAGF

[16] = target: T2, Peroxisome proliferator-activated receptor gamma (Homo sapiens) (UniProt P37231); experiment: Displacement of [3H]rosiglitazone from human recombinant PPAR-gamma receptor expressed in Escherichia coli at 100 uM measured after 120 mins by scintillation counting method relative to control
T2 sequence (whole entry): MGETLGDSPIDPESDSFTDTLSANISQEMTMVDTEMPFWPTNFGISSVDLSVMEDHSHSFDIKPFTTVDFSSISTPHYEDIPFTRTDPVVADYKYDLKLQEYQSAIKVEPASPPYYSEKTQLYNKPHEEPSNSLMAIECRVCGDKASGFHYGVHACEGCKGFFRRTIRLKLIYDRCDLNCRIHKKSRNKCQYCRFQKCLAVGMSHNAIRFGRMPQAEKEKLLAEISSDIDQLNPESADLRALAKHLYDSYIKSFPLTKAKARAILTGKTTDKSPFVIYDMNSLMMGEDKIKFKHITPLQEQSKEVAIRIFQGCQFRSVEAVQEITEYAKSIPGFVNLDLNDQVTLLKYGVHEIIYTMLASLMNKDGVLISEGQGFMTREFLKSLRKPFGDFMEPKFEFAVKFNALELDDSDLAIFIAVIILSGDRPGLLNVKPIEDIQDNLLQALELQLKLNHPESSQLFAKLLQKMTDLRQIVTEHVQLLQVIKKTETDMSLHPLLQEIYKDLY

Rattus norvegicus [17] = experiment: Neurotoxicity in Sprague-Dawley rat assessed as behavioral change at 30 mg/kg, po measured at 4 hrs post dose; format: toxicity, organism-based; details: in vivo
[18] = target: T3, Endothelin receptor type B (Homo sapiens) (UniProt P24530); experiment: Displacement of [125I]endothelin-1 from human recombinant ETB receptor expressed in CHO cells at 100 uM measured after 120 mins by scintillation counting method relative to control; format: cell-based
T3 sequence (whole entry): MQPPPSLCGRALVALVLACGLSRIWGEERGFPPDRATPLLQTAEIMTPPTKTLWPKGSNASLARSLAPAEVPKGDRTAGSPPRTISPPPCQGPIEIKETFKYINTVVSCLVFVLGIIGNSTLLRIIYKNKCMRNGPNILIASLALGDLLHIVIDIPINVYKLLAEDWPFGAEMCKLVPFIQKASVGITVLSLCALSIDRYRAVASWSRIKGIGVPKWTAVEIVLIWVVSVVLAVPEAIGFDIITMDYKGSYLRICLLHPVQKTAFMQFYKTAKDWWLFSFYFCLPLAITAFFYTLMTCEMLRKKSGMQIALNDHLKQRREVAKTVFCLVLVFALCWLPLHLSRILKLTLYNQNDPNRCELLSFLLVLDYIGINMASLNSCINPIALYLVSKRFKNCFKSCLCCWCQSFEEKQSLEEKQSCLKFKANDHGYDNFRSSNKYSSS

[19] = target: Cannabinoid receptor 1 (Homo sapiens) (UniProt P21554); experiment: Displacement of [3H]CP 55940 from human recombinant CB1 receptor expressed in CHO cells at 100 uM measured after 120 mins by scintillation counting method relative to control; format: cell-based
[20] = Protection index, ratio of TD50 for neurotoxicity in ip dosed mouse to ED50 for ip dosed 6-Hz induced seizure mouse model at 44 mA; format: toxicity, organism-based; details: in vivo, read-out: Ratio TD50/ED50
[21] = target: Prostaglandin E2 receptor EP4 subtype (Homo sapiens) (UniProt P35408); experiment: Displacement of [3H]PGE2 from human recombinant EP4 receptor expressed in HEK293 cells at 100 uM measured after 120 mins by scintillation counting method relative to control; format: cell-based
Prostaglandin E2 receptor EP4 subtype (Homo sapiens), sequence (P35408 whole entry): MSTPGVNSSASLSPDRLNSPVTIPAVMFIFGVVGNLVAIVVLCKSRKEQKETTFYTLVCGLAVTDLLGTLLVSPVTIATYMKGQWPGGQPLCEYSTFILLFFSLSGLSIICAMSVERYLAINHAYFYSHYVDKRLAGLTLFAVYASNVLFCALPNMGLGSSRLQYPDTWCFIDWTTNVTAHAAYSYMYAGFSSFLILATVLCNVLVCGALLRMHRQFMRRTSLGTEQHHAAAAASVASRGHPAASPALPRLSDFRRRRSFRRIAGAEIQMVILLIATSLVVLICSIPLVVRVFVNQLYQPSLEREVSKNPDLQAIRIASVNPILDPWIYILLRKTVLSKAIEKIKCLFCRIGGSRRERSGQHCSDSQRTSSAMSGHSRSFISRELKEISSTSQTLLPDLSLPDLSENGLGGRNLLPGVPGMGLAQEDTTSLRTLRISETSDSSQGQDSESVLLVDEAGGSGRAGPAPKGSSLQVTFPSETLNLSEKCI

Cannabinoid receptor 1 (Homo sapiens), sequence (P21554 whole entry): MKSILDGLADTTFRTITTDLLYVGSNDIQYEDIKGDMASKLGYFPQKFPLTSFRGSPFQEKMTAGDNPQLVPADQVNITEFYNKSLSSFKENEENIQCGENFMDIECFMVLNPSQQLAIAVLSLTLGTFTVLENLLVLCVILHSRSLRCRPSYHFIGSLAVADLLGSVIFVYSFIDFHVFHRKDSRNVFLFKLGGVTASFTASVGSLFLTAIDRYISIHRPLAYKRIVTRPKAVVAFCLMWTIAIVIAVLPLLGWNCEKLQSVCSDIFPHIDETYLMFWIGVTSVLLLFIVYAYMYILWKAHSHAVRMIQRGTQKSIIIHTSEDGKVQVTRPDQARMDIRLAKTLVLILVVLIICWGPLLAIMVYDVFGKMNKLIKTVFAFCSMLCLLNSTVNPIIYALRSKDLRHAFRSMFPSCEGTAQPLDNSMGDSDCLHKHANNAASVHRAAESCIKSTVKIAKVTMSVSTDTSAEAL
5-hydroxytryptamine receptor 2B (Homo sapiens), sequence (P41595 whole entry): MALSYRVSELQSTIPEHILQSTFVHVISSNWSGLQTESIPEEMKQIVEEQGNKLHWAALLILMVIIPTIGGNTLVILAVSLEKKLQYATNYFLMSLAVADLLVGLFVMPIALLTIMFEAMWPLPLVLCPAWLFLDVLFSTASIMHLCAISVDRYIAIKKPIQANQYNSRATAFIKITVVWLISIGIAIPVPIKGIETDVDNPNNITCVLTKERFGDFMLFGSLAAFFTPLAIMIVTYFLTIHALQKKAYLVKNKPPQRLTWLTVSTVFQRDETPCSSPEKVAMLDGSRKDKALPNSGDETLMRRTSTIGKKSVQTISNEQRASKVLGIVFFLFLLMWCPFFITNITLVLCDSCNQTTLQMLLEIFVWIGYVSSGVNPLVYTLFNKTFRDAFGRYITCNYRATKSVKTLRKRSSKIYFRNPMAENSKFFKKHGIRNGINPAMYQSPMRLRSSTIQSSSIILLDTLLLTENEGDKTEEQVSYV
Prostaglandin E2 receptor EP2 subtype (Homo sapiens), sequence (P43116 whole entry): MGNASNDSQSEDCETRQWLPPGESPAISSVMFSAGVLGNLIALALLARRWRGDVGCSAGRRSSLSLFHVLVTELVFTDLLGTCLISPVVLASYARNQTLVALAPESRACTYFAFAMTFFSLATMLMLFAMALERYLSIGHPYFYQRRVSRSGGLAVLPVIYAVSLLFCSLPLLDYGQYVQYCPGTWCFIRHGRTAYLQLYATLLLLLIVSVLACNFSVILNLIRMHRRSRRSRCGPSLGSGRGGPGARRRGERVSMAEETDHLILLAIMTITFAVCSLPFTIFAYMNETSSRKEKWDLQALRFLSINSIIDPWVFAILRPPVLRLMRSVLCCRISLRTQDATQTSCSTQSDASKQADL
Kappa-type opioid receptor (Rattus norvegicus), sequence (P34975 whole entry): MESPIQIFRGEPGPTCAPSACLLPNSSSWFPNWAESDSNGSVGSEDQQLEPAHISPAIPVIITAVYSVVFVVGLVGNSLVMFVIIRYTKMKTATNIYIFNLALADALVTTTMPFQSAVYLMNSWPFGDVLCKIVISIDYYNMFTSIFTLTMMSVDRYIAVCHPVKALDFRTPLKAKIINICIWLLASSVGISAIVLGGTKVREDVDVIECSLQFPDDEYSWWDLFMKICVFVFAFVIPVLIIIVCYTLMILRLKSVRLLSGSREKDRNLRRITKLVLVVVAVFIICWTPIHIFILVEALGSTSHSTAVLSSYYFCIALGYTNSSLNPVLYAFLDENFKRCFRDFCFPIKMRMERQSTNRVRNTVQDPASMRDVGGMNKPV
Melatonin receptor type 1A (Homo sapiens), sequence (P48039 whole entry): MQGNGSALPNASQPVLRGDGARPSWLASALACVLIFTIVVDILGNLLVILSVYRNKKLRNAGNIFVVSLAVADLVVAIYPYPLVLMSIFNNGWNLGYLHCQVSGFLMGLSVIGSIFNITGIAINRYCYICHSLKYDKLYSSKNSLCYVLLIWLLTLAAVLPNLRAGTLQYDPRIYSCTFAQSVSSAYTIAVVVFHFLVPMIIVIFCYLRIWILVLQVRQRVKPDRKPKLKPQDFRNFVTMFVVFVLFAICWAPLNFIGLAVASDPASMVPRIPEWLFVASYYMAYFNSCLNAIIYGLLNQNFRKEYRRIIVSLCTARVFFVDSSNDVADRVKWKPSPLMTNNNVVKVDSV

SMILES | Time (Rattus norvegicus [1]) [h] | inhibition [2] [%] | Activity (Rattus norvegicus [3]) | TD50 [4] [mg/kg] | inhibition [5] [%] | Activity (Mus musculus [6]) | TD50 [7] [mg/kg] | inhibition [8] [%] | inhibition (Rattus norvegicus [9]) [%] | ED50 (Mus musculus [10]) [mg/kg] | Time (Rattus norvegicus [11]) [h] | inhibition [12] [%] | inhibition [13] [%] | ED50 (Mus musculus [14]) [mg/kg] | inhibition [15] [%] | inhibition [16] [%] | Activity (Rattus norvegicus [17]) | inhibition [18] [%] | inhibition [19] [%] | selectivity ratio [20] | further results
CCC(CO)NC(=O)/C=C/c1ccc(Cl)cc1 (stereo not drawn) | 1 | 58.2 | Non-Toxic | 79.5 | 34.8 | Active | 277 | 57.6 | 37.2 | 53.8 | 0.5 | 41.9 | 4.3 | 90.3 | -2.2 | 26.7 | Non-Toxic | -10 | 11.5 | 2.12 | inhibition [21]: 29.7%
CC(O)CNC(=O)/C=C/c1ccc(Cl)cc1 (stereo not drawn) | 0.5 | 41.6 | Non-Toxic | 69.8 | 25.1 | Active | > 500 | 29.7 | 22.6 | 55.6 | 0.5 | 31.6 | 10.6 | 102 | -2 | 2.3 | Non-Toxic | -4.6 | 4.7 | 3.51 | inhibition [21]: 23.6%
Cc1ccccc1/C=C/C(=O)N[C@@H](C)CO | 0.5 | 79.8 | Non-Toxic | 103 | 10.8 | Active | > 500 | 37.8 | 17.7 | 42.6 | 1 | 14.8 | 14.5 | 58.4 | -3.7 | 3 | Non-Toxic | -8.2 | 9.1 | 3.55 | inhibition [21]: 16.7%
